Test results as given in PubChem BioAssay AID248 (DTP/NCI, 2004).
Values joined by “and” are separate entries in the source; they are usually repeats but may differ in a detail not shown here. Identical values can stand only once. Inconclusive results and toxic doses are left out.

System: L1210 leukemia ip in BDF1 mice, survival T/C
Assay: NCI In Vivo Anticancer Drug Screen. Data for tumor model L1210 Leukemia (intraperitoneal) in B6D2F1 (BDF1) mice
Conditions: endpoint: mean survival time, higher = longer survival
How it was run: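 Transplanted-tumor mice were given test agent; controls received vehicle only. Survival readings from the two groups were divided (treated over control).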

[1] = dose: 100.0 mg/kg/injection, schedule: Q01DX009 (ip), vehicle: Klucel (hydroxypropylcellulose) (HPC)
[2] = dose: 100.0 mg/kg/injection, schedule: Q04DX003 (ip), vehicle: Klucel (hydroxypropylcellulose) (HPC)
[3] = dose: 100.0 mg/kg/injection, schedule: Q04DX002 (ip), vehicle: Klucel (hydroxypropylcellulose) (HPC)
[4] = dose: 50.0 mg/kg/injection, schedule: Q01DX001 (ip), vehicle: saline
[5] = dose: 200.0 mg/kg/injection, schedule: Q01DX009 (ip), vehicle: Klucel (hydroxypropylcellulose) (HPC)
[6] = dose: 400.0 mg/kg/injection, schedule: Q01DX009 (ip), vehicle: Klucel (hydroxypropylcellulose) (HPC)
[7] = dose: 200.0 mg/kg/injection, schedule: Q04DX003 (ip), vehicle: Klucel (hydroxypropylcellulose) (HPC)
[8] = dose: 400.0 mg/kg/injection, schedule: Q04DX003 (ip), vehicle: Klucel (hydroxypropylcellulose) (HPC)
[9] = dose: 100.0 mg/kg/injection, schedule: Q01DX001 (ip), vehicle: saline
[10] = dose: 200.0 mg/kg/injection, schedule: Q01DX001 (ip), vehicle: saline

O=C(CCCN1CC=C(n2c(=O)[nH]c3ccccc32)CC1)c1ccc(F)cc1
T/C (dose: 6.25 mg/kg/injection, schedule: Q01DX009 (ip), vehicle: Klucel (hydroxypropylcellulose) (HPC)): 100 % of control
T/C (dose: 6.25 mg/kg/injection, schedule: Q04DX003 (ip), vehicle: Klucel (hydroxypropylcellulose) (HPC)): 103 % of control
T/C (dose: 12.5 mg/kg/injection, schedule: Q01DX009 (ip), vehicle: Klucel (hydroxypropylcellulose) (HPC)): 104 % of control
T/C (dose: 12.5 mg/kg/injection, schedule: Q04DX003 (ip), vehicle: Klucel (hydroxypropylcellulose) (HPC)): 103 % of control
T/C (dose: 25.0 mg/kg/injection, schedule: Q01DX009 (ip), vehicle: Klucel (hydroxypropylcellulose) (HPC)): 98 % of control
T/C (dose: 25.0 mg/kg/injection, schedule: Q04DX003 (ip), vehicle: Klucel (hydroxypropylcellulose) (HPC)): 103 % of control
T/C (dose: 50.0 mg/kg/injection, schedule: Q01DX009 (ip), vehicle: Klucel (hydroxypropylcellulose) (HPC)): 102 % of control
T/C (dose: 50.0 mg/kg/injection, schedule: Q04DX003 (ip), vehicle: Klucel (hydroxypropylcellulose) (HPC)): 106 % of control
T/C [1]: 94 % of control
T/C [2]: 101 % of control and 111 % of control

CCOC(=O)/C(C#N)=C/c1cccn1Cc1cc2c(cc1[N+](=O)[O-])OCO2
T/C (dose: 25.0 mg/kg/injection, schedule: Q04DX002 (ip), vehicle: Klucel (hydroxypropylcellulose) (HPC)): 104 % of control
T/C (dose: 50.0 mg/kg/injection, schedule: Q04DX002 (ip), vehicle: Klucel (hydroxypropylcellulose) (HPC)): 100 % of control
T/C [3]: 100 % of control

O=C(O)/C=C/C(=O)Nc1ccc(I)cc1
T/C (dose: 50.0 mg/kg/injection, schedule: Q04DX003 (ip), vehicle: saline with Tween-80): 104 % of control
T/C (dose: 100.0 mg/kg/injection, schedule: Q04DX003 (ip), vehicle: saline with Tween-80): 104 % of control
T/C (dose: 200.0 mg/kg/injection, schedule: Q04DX003 (ip), vehicle: saline with Tween-80): 104 % of control

COC(=O)CCc1ccc(OC)cc1
T/C (dose: 100.0 mg/kg/injection, schedule: Q04DX003 (ip), vehicle: other): 100 % of control
T/C (dose: 200.0 mg/kg/injection, schedule: Q04DX003 (ip), vehicle: other): 99 % of control
T/C (dose: 400.0 mg/kg/injection, schedule: Q04DX003 (ip), vehicle: other): 106 % of control

Cc1c2ccncc2c(C)c2c1sc1ccccc12
T/C (dose: 5.0 mg/kg/injection, schedule: Q01DX009 (ip), vehicle: Klucel (hydroxypropylcellulose) (HPC)): 106 % of control
T/C (dose: 10.0 mg/kg/injection, schedule: Q01DX009 (ip), vehicle: Klucel (hydroxypropylcellulose) (HPC)): 117 % of control
T/C (dose: 20.0 mg/kg/injection, schedule: Q01DX009 (ip), vehicle: Klucel (hydroxypropylcellulose) (HPC)): 124 % of control
T/C (dose: 20.0 mg/kg/injection, schedule: Q01DX009 (ip), vehicle: other): 113 % of control
T/C (dose: 31.0 mg/kg/injection, schedule: Q01DX001 (ip), vehicle: other): 105 % of control
T/C (dose: 62.0 mg/kg/injection, schedule: Q01DX001 (ip), vehicle: other): 111 % of control
T/C (dose: 80.0 mg/kg/injection, schedule: Q01DX009 (ip), vehicle: other): 121 % of control
T/C (dose: 125.0 mg/kg/injection, schedule: Q01DX001 (ip), vehicle: other): 121 % of control
T/C (dose: 250.0 mg/kg/injection, schedule: Q01DX001 (oral), vehicle: other): 112 % of control
T/C (dose: 500.0 mg/kg/injection, schedule: Q01DX001 (ip), vehicle: other): 187 % of control
T/C (dose: 500.0 mg/kg/injection, schedule: Q01DX001 (oral), vehicle: other): 112 % of control

CCCCCC/C=C\[N+](=O)[O-]
T/C (dose: 50.0 mg/kg/injection, schedule: Q01DX001 (ip), vehicle: saline with Tween-80): 109 % of control

CC(=O)[C@H]1CC[C@H]2[C@@H]3CCC4=CC(=O)[C@H](C)C[C@]4(C)[C@H]3C(=O)C[C@]12C
T/C (dose: 200.0 mg/kg/injection, schedule: Q01DX001 (sc), vehicle: steriod suspending solution): 98 % of control
T/C (dose: 200.0 mg/kg/injection, schedule: Q01DX009 (sc), vehicle: steriod suspending solution): 100 % of control
T/C (dose: 400.0 mg/kg/injection, schedule: Q01DX001 (sc), vehicle: steriod suspending solution): 104 % of control
T/C (dose: 400.0 mg/kg/injection, schedule: Q01DX009 (sc), vehicle: steriod suspending solution): 100 % of control
T/C (dose: 600.0 mg/kg/injection, schedule: Q01DX001 (sc), vehicle: steriod suspending solution): 96 % of control
T/C (dose: 600.0 mg/kg/injection, schedule: Q01DX009 (sc), vehicle: steriod suspending solution): 92 % of control
T/C (dose: 800.0 mg/kg/injection, schedule: Q01DX001 (sc), vehicle: steriod suspending solution): 96 % of control
T/C (dose: 800.0 mg/kg/injection, schedule: Q01DX009 (sc), vehicle: steriod suspending solution): 92 % of control

CC1CC[N+]2(CC(=O)c3ccc(Br)cc3)CCCC12 (centres undefined)
T/C (dose: 12.5 mg/kg/injection, schedule: Q01DX001 (ip), vehicle: saline): 101 % of control
T/C (dose: 25.0 mg/kg/injection, schedule: Q01DX001 (ip), vehicle: saline): 104 % of control
T/C [4]: 98 % of control

C#CCONC(=O)c1ccc(OC)cc1
T/C (dose: 25.0 mg/kg/injection, schedule: Q01DX009 (ip), vehicle: carboxymethylcellulose (CMC)): 98 % of control
T/C (dose: 50.0 mg/kg/injection, schedule: Q01DX009 (ip), vehicle: carboxymethylcellulose (CMC)): 98 % of control
T/C (dose: 100.0 mg/kg/injection, schedule: Q01DX009 (ip), vehicle: carboxymethylcellulose (CMC)): 96 % of control

NNC(=O)C1CC2C=CCC(C2)C1 (centres undefined)
T/C (dose: 100.0 mg/kg/injection, schedule: Q01DX001 (ip), vehicle: saline with Tween-80): 98 % of control
T/C (dose: 200.0 mg/kg/injection, schedule: Q01DX001 (ip), vehicle: saline with Tween-80): 92 % of control

COc1ccc(C(CC(=O)c2ccc(C)cc2)Sc2ccccc2N)cc1 (centres undefined)
T/C (dose: 100.0 mg/kg/injection, schedule: Q01DX005 (ip), vehicle: Klucel (hydroxypropylcellulose) (HPC)): 108 % of control
T/C [1]: 94 % of control
T/C [3]: 98 % of control
T/C (dose: 200.0 mg/kg/injection, schedule: Q01DX005 (ip), vehicle: Klucel (hydroxypropylcellulose) (HPC)): 89 % of control
T/C [5]: 97 % of control
T/C (dose: 200.0 mg/kg/injection, schedule: Q04DX002 (ip), vehicle: Klucel (hydroxypropylcellulose) (HPC)): 103 % of control
T/C (dose: 400.0 mg/kg/injection, schedule: Q01DX005 (ip), vehicle: Klucel (hydroxypropylcellulose) (HPC)): 86 % of control
T/C [6]: 94 % of control
T/C (dose: 400.0 mg/kg/injection, schedule: Q04DX002 (ip), vehicle: Klucel (hydroxypropylcellulose) (HPC)): 103 % of control

O=C(O)c1ccc2[nH]c(=O)c(=O)[nH]c2c1
T/C [2]: 96 % of control
T/C [7]: 101 % of control
T/C [8]: 102 % of control

CCCCCCCCCCCCCCCCCC(=O)OCC1(COC(=O)CCCCCCCCCCCCCCCCC)COC(CCCCCCCCCCCCCCCCC)=N1
T/C (dose: 100.0 mg/kg/injection, schedule: Q01DX001 (ip), vehicle: Klucel (hydroxypropylcellulose) (HPC)): 92 % of control
T/C (dose: 200.0 mg/kg/injection, schedule: Q01DX001 (ip), vehicle: Klucel (hydroxypropylcellulose) (HPC)): 95 % of control
T/C (dose: 400.0 mg/kg/injection, schedule: Q01DX001 (ip), vehicle: Klucel (hydroxypropylcellulose) (HPC)): 109 % of control

CC(=O)Nc1ccc(C=Nc2ccccc2)cc1
T/C [1]: 107 % of control
T/C [2]: 96 % of control
T/C [5]: 102 % of control
T/C [7]: 97 % of control
T/C [6]: 111 % of control
T/C [8]: 97 % of control

NCCN(CCN)CCN
T/C [4]: 108 % of control
T/C [9]: 96 % of control
T/C [10]: 96 % of control
T/C (dose: 400.0 mg/kg/injection, schedule: Q01DX001 (ip), vehicle: saline): 124 % of control

CCCCCCCCCCCCCCCCS(=O)(=O)c1ccc(S(=O)(=O)F)cc1NC(C)=O
T/C [2]: 91 % of control
T/C (dose: 200.0 mg/kg/injection, schedule: Q01DX009 (ip), vehicle: saline sonified): 93 % of control
T/C [7]: 94 % of control
T/C [8]: 91 % of control

CC(=O)Oc1ccc(Cl)cc1C=O
T/C [9]: 105 % of control
T/C [10]: 103 % of control

O=S(=O)(O)CCO
T/C (dose: 50.0 mg/kg/injection, schedule: Q01DX009 (ip), vehicle: saline): 99 % of control
T/C (dose: 100.0 mg/kg/injection, schedule: Q01DX009 (ip), vehicle: saline): 95 % of control
T/C (dose: 100.0 mg/kg/injection, schedule: Q04DX003 (ip), vehicle: saline): 97 % of control
T/C (dose: 200.0 mg/kg/injection, schedule: Q01DX009 (ip), vehicle: saline): 99 % of control
T/C (dose: 200.0 mg/kg/injection, schedule: Q04DX003 (ip), vehicle: saline): 101 % of control
T/C (dose: 400.0 mg/kg/injection, schedule: Q04DX003 (ip), vehicle: saline): 101 % of control
